{
  "source": "patent US10118935B2",
  "about": "“Melampomagnolide B dimers” (priority 2014, dated 2018)",
  "key": {"[1]": {"system": "MALME-3M", "assay": "NCI 60 cell line five dose, Melanoma", "details": "MAL1ME−3M"}, "[2]": {"system": "PC-3", "assay": "NCI 60 cell line five dose, Prostate Cancer"}, "[3]": {"system": "HCC-2998", "assay": "NCI 60 cell line five dose, Colon Cancer"}, "[4]": {"system": "OVCAR-3", "assay": "NCI 60 cell line five dose, Ovarian Cancer"}, "[5]": {"system": "UACC-257", "assay": "NCI 60 cell line five dose, Melanoma"}, "[6]": {"system": "SN12C", "assay": "NCI 60 cell line five dose, Renal Cancer"}, "[7]": {"system": "SK-OV-3", "assay": "NCI 60 cell line five dose, Ovarian Cancer"}, "[8]": {"system": "UO-31", "assay": "NCI 60 cell line five dose, Renal Cancer"}, "[9]": {"system": "MCF7", "assay": "NCI 60 cell line five dose, Breast Cancer"}, "[10]": {"system": "NCI/ADR-RES", "assay": "NCI 60 cell line five dose, Ovarian Cancer", "details": "NCI/ADR-"}, "[11]": {"system": "SW-620", "assay": "NCI 60 cell line five dose, Colon Cancer"}, "[12]": {"system": "NCI-H522", "assay": "NCI 60 cell line five dose, Non-Small Cell Lung Cancer"}},
  "data": [
    {"compound": "C=C1C(=O)O[C@H]2[C@H]1CC/C(COC(=O)NCCCCCCCCNC(=O)OC/C1=C/CC[C@@]3(C)O[C@H]3[C@H]3OC(=O)C(=C)[C@@H]3CC1)=C\\CC[C@@]1(C)O[C@@H]21", "note": "[JVM 3-62, bis(((1aR,7aS, 10aS, 10bS, E)-1a-Methyl-8-methylene-9-oxo-1a,2,3,6,7,7a,8,9,10a,10b-decahydrooxireno[2′,3′:9,10]cyclodeca[1,2-b]furan-5-yl)methyl)octane-1,8-diyldicarbamate]", "values": [
      {"measurement": "Percent Growth", "setting": "[1]; Log10 Concentration −4.0", "result": "−65", "unit": "%"},
      {"measurement": "Percent Growth", "setting": "[1]; Log10 Concentration −5.0", "result": "−58", "unit": "%"},
      {"measurement": "Percent Growth", "setting": "[1]; Log10 Concentration −6.0", "result": "−55", "unit": "%"},
      {"measurement": "Percent Growth", "setting": "[1]; Log10 Concentration −7.0", "result": 95, "unit": "%"},
      {"measurement": "Percent Growth", "setting": "[1]; Log10 Concentration −8.0", "result": 95, "unit": "%"},
      {"measurement": "GI50", "setting": "[1]; molar", "result": 0.199, "unit": "µM"},
      {"measurement": "CC50", "setting": "[1]; read-out: LC50, molar", "result": 0.929, "unit": "µM"},
      {"measurement": "Percent Growth", "setting": "[2]; Log10 Concentration −4.0", "result": "−91", "unit": "%"},
      {"measurement": "Percent Growth", "setting": "[2]; Log10 Concentration −5.0", "result": "−78", "unit": "%"},
      {"measurement": "Percent Growth", "setting": "[2]; Log10 Concentration −6.0", "result": 21, "unit": "%"},
      {"measurement": "Percent Growth", "setting": "[2]; Log10 Concentration −7.0", "result": 91, "unit": "%"},
      {"measurement": "Percent Growth", "setting": "[2]; Log10 Concentration −8.0", "result": 91, "unit": "%"},
      {"measurement": "GI50", "setting": "[2]; molar", "result": 0.385, "unit": "µM"},
      {"measurement": "TGI", "setting": "[2]; molar", "result": "1.63E−6"},
      {"measurement": "CC50", "setting": "[2]; read-out: LC50, molar", "result": 5.2, "unit": "µM"},
      {"measurement": "Percent Growth", "setting": "[3]; Log10 Concentration −4.0", "result": "−92", "unit": "%"},
      {"measurement": "Percent Growth", "setting": "[3]; Log10 Concentration −5.0", "result": "−93", "unit": "%"},
      {"measurement": "Percent Growth", "setting": "[3]; Log10 Concentration −6.0", "result": 63, "unit": "%"},
      {"measurement": "Percent Growth", "setting": "[3]; Log10 Concentration −7.0", "result": 98, "unit": "%"},
      {"measurement": "Percent Growth", "setting": "[3]; Log10 Concentration −8.0", "result": 100, "unit": "%"},
      {"measurement": "GI50", "setting": "[3]; molar", "result": 1.2, "unit": "µM"},
      {"measurement": "TGI", "setting": "[3]; molar", "result": "2.52E−6"},
      {"measurement": "CC50", "setting": "[3]; read-out: LC50, molar", "result": 5.28, "unit": "µM"},
      {"measurement": "Percent Growth", "setting": "[4]; Log10 Concentration −4.0", "result": "−100", "unit": "%"},
      {"measurement": "Percent Growth", "setting": "[4]; Log10 Concentration −5.0", "result": "−98", "unit": "%"},
      {"measurement": "Percent Growth", "setting": "[4]; Log10 Concentration −6.0", "result": 3, "unit": "%"},
      {"measurement": "Percent Growth", "setting": "[4]; Log10 Concentration −7.0", "result": 101, "unit": "%"},
      {"measurement": "Percent Growth", "setting": "[4]; Log10 Concentration −8.0", "result": 102, "unit": "%"},
      {"measurement": "GI50", "setting": "[4]; molar", "result": 0.33, "unit": "µM"},
      {"measurement": "TGI", "setting": "[4]; molar", "result": "1.08E−6"},
      {"measurement": "CC50", "setting": "[4]; read-out: LC50, molar", "result": 3.32, "unit": "µM"},
      {"measurement": "Percent Growth", "setting": "[5]; Log10 Concentration −4.0", "result": "−55", "unit": "%"},
      {"measurement": "Percent Growth", "setting": "[5]; Log10 Concentration −5.0", "result": "−57", "unit": "%"},
      {"measurement": "Percent Growth", "setting": "[5]; Log10 Concentration −6.0", "result": 47, "unit": "%"},
      {"measurement": "Percent Growth", "setting": "[5]; Log10 Concentration −7.0", "result": 89, "unit": "%"},
      {"measurement": "Percent Growth", "setting": "[5]; Log10 Concentration −8.0", "result": 97, "unit": "%"},
      {"measurement": "GI50", "setting": "[5]; molar", "result": 0.848, "unit": "µM"},
      {"measurement": "TGI", "setting": "[5]; molar", "result": "2.82E−6"},
      {"measurement": "CC50", "setting": "[5]; read-out: LC50, molar", "result": 8.51, "unit": "µM"},
      {"measurement": "Percent Growth", "setting": "[6]; Log10 Concentration −4.0", "result": "−59", "unit": "%"},
      {"measurement": "Percent Growth", "setting": "[6]; Log10 Concentration −5.0", "result": "−65", "unit": "%"},
      {"measurement": "Percent Growth", "setting": "[6]; Log10 Concentration −6.0", "result": "−7", "unit": "%"},
      {"measurement": "Percent Growth", "setting": "[6]; Log10 Concentration −7.0", "result": 91, "unit": "%"},
      {"measurement": "Percent Growth", "setting": "[6]; Log10 Concentration −8.0", "result": 100, "unit": "%"},
      {"measurement": "GI50", "setting": "[6]; molar", "result": 0.264, "unit": "µM"},
      {"measurement": "CC50", "setting": "[6]; read-out: LC50, molar", "result": 5.49, "unit": "µM"},
      {"measurement": "Percent Growth", "setting": "[7]; Log10 Concentration −4.0", "result": "−100", "unit": "%"},
      {"measurement": "Percent Growth", "setting": "[7]; Log10 Concentration −5.0", "result": 10, "unit": "%"},
      {"measurement": "Percent Growth", "setting": "[7]; Log10 Concentration −6.0", "result": 101, "unit": "%"},
      {"measurement": "Percent Growth", "setting": "[7]; Log10 Concentration −7.0", "result": 108, "unit": "%"},
      {"measurement": "Percent Growth", "setting": "[7]; Log10 Concentration −8.0", "result": 108, "unit": "%"},
      {"measurement": "GI50", "setting": "[7]; molar", "result": 3.64, "unit": "µM"},
      {"measurement": "Percent Growth", "setting": "[8]; Log10 Concentration −4.0", "result": "−87", "unit": "%"},
      {"measurement": "Percent Growth", "setting": "[8]; Log10 Concentration −5.0", "result": "−94", "unit": "%"},
      {"measurement": "Percent Growth", "setting": "[8]; Log10 Concentration −6.0", "result": 48, "unit": "%"},
      {"measurement": "Percent Growth", "setting": "[8]; Log10 Concentration −7.0", "result": 90, "unit": "%"},
      {"measurement": "Percent Growth", "setting": "[8]; Log10 Concentration −8.0", "result": 90, "unit": "%"},
      {"measurement": "GI50", "setting": "[8]; molar", "result": 0.88, "unit": "µM"},
      {"measurement": "TGI", "setting": "[8]; molar", "result": "2.17E−6"},
      {"measurement": "CC50", "setting": "[8]; read-out: LC50, molar", "result": 4.9, "unit": "µM"},
      {"measurement": "Percent Growth", "setting": "[9]; Log10 Concentration −4.0", "result": "−54", "unit": "%"},
      {"measurement": "Percent Growth", "setting": "[9]; Log10 Concentration −5.0", "result": "−75", "unit": "%"},
      {"measurement": "Percent Growth", "setting": "[9]; Log10 Concentration −6.0", "result": "−7", "unit": "%"},
      {"measurement": "Percent Growth", "setting": "[9]; Log10 Concentration −7.0", "result": 80, "unit": "%"},
      {"measurement": "Percent Growth", "setting": "[9]; Log10 Concentration −8.0", "result": 89, "unit": "%"},
      {"measurement": "GI50", "setting": "[9]; molar", "result": 0.221, "unit": "µM"},
      {"measurement": "TGI", "setting": "[9]; molar", "result": "8.33E−7"},
      {"measurement": "CC50", "setting": "[9]; read-out: LC50, molar", "result": 4.3, "unit": "µM"},
      {"measurement": "Percent Growth", "setting": "[10]; Log10 Concentration −4.0", "result": "−57", "unit": "%"},
      {"measurement": "Percent Growth", "setting": "[10]; Log10 Concentration −5.0", "result": 21, "unit": "%"},
      {"measurement": "Percent Growth", "setting": "[10]; Log10 Concentration −6.0", "result": 92, "unit": "%"},
      {"measurement": "Percent Growth", "setting": "[10]; Log10 Concentration −7.0", "result": 111, "unit": "%"},
      {"measurement": "Percent Growth", "setting": "[10]; Log10 Concentration −8.0", "result": 103, "unit": "%"},
      {"measurement": "GI50", "setting": "[10]; molar", "result": 3.91, "unit": "µM"},
      {"measurement": "TGI", "setting": "[10]; molar", "result": "1.87E−5"},
      {"measurement": "CC50", "setting": "[10]; read-out: LC50, molar", "result": 82, "unit": "µM"},
      {"measurement": "Percent Growth", "setting": "[11]; Log10 Concentration −4.0", "result": "−77", "unit": "%"},
      {"measurement": "Percent Growth", "setting": "[11]; Log10 Concentration −5.0", "result": "−79", "unit": "%"},
      {"measurement": "Percent Growth", "setting": "[11]; Log10 Concentration −6.0", "result": "−18", "unit": "%"},
      {"measurement": "Percent Growth", "setting": "[11]; Log10 Concentration −7.0", "result": 91, "unit": "%"},
      {"measurement": "Percent Growth", "setting": "[11]; Log10 Concentration −8.0", "result": 91, "unit": "%"},
      {"measurement": "GI50", "setting": "[11]; molar", "result": 0.239, "unit": "µM"},
      {"measurement": "TGI", "setting": "[11]; molar", "result": "6.86E−7"},
      {"measurement": "CC50", "setting": "[11]; read-out: LC50, molar", "result": 3.37, "unit": "µM"},
      {"measurement": "Percent Growth", "setting": "[12]; Log10 Concentration −4.0", "result": "−66", "unit": "%"},
      {"measurement": "Percent Growth", "setting": "[12]; Log10 Concentration −5.0", "result": "−75", "unit": "%"},
      {"measurement": "Percent Growth", "setting": "[12]; Log10 Concentration −6.0", "result": "−57", "unit": "%"},
      {"measurement": "Percent Growth", "setting": "[12]; Log10 Concentration −7.0", "result": 89, "unit": "%"}
    ]}
  ]
}
